Data: patent publication US10450297B2, “Sulfonyl amide derivatives for the treatment of abnormal cell growth” (Pfizer, Inc., priority 2007, dated 2019)

Biological target: FAK kinase (catalytic construct FAK(410-689)) (Homo sapiens (Human), UniProt Q05397)
Assay: FAKcd kinase ELISA (inhibition of poly-glu-tyr phosphorylation by FAK(410-689))
Assay type: biochemical
Details: 50 μM final ATP

Chain of FAK kinase (catalytic construct FAK(410-689)) (Q05397 410-689): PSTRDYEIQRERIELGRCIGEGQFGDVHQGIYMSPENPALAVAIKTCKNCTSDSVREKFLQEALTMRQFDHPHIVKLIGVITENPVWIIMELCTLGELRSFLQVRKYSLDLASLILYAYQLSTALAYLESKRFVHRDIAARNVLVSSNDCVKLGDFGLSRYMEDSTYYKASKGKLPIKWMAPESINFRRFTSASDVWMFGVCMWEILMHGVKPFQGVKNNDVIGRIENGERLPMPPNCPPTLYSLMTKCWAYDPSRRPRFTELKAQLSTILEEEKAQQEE

Row | IC50 [nM] | SMILES
1 | 0.6 | CN(c1ncccc1CNc1nc(Nc2ccc(C(=O)NCC3(O)CCC3)cc2)ncc1C(F)(F)F)S(C)(=O)=O [Compound 246, N-[(1-hydroxycyclobutyl)methyl]-4-({4-[({2-[methyl(methylsulfonyl)amino]pyridin-3-yl}methyl)amino]-5-(trifluoromethyl)pyrimidin-2-yl}amino)benzamide]
2 | 0.63 | CN(c1ncccc1CNc1nc(Nc2ccc(C(=O)N3CCCC(O)C3)cc2)ncc1C(F)(F)F)S(C)(=O)=O (stereo not drawn) [Compound 247, N-[3-({[2-({4-[(3-hydroxypiperidin-1-yl)carbonyl]phenyl}amino)-5-(trifluoromethyl)pyrimidin-4-yl]amino}methyl)pyridin-2-yl]-N-methylmethane-sulfonamide]
3 | 9.35 | CN(c1ncccc1CNc1nc(Nc2ccc(C(=O)NCc3ccccn3)cc2)ncc1C(F)(F)F)S(C)(=O)=O [Compound 248, 4-({4-[({2-[methyl(methylsulfonyl)amino]pyridin-3-yl}methyl)amino]-5-(trifluoromethyl)pyrimidin-2-yl}amino)-N-(pyridin-2-ylmethyl)benzamide]
4 | 1.91 | CN(c1ncccc1CNc1nc(Nc2ccc(C(=O)N3CC[C@@H](O)C3)cc2)ncc1C(F)(F)F)S(C)(=O)=O [Compound 249, N-{3-[({2-[(4-{[(3R)-3-hydroxypyrrolidin-1-yl]carbonyl}phenyl)amino]-5-(trifluoromethyl)pyrimidin-4-yl}amino)methyt]pyridin-2-yl}-N-methylmethane-sulfonamide]
5 | 0.69 | CN1CCC(NC(=O)c2ccc(Nc3ncc(C(F)(F)F)c(NCc4cccnc4N(C)S(C)(=O)=O)n3)cc2)CC1 [Compound 250, 4-({4-[({2-[methyl(methylsulfonyl)amino]pyridin-3-yl}methyl)amino]-5-(trifluoromethyl)pyrimidin-2-yl}amino)-N-(1-methylpiperidin-4-yl)benzamide]
6 | 1.21 | CN(C)CCNC(=O)c1ccc(Nc2ncc(C(F)(F)F)c(NCc3cccnc3N(C)S(C)(=O)=O)n2)cc1 [Compound 251, N-[2-(dimethylamino)ethyl]-4-({4-[({2-[methyl(methylsulfonyl)amino]pyridin-3-yl}methyl)amino]-5-(trifluoromethyl)pyrimidin-2-yl}amino)benzamide]
7 | 1.48 | CN(c1ncccc1CNc1nc(Nc2ccc(C(=O)NCC3CC3)cc2)ncc1C(F)(F)F)S(C)(=O)=O [Compound 252, N-(cyclopropylmethyl)-4-({4-[({2-[methyl(methylsulfonyl)amino}pyridin-3-yl}methyl)amino]-5-(trifluoromethyl)pyrimidin-2-yl}amino)benzamide]
8 | 0.6 | CN(c1ncccc1CNc1nc(Nc2ccc(C(=O)N3CCC3)cc2)ncc1C(F)(F)F)S(C)(=O)=O [Compound 253, N-[3-({[2-{[4-(azetidin-1 - ylcarbonyl)phenyl]amino}-5-(trifluoromethyl)pyrimidin-4-yl]amino}methyl)pyridin-2-yl]-N-methylmethane-sulfonarriide]
9 | 1.33 | CN(c1ncccc1CNc1nc(Nc2ccc(C(=O)N3CCNC(=O)C3)cc2)ncc1C(F)(F)F)S(C)(=O)=O [Compound 254, N-methyl-N-[3-({[2-({4-[(3-oxopiperazin-1-yl)carbonyl]phenyl}amino)-5-(trifluoromethyl)pyrimidin-4-yl]amino}methyl)pyridin-2-yl]methanesulfonamide]
10 | 0.82 | CN(c1ncccc1CNc1nc(Nc2ccc(C(=O)NCCCO)cc2)ncc1C(F)(F)F)S(C)(=O)=O [Compound 255, N-(3-hydroxypropyl)-4-({4-[({2-[methyl(methylsulfonyl)amino]pyridin-3-yl}methyl)amino]-5-(trifluoromethyl)pyrimidin-2-yl}amino)benzamide]
11 | 1.57 | CN(c1ncccc1CNc1nc(Nc2ccc(C(=O)NCC(C)(C)CO)cc2)ncc1C(F)(F)F)S(C)(=O)=O [Compound 256, N-(3-hydroxy-2,2-dimethylpropyl)-4-({4-[({2-[methyl(methylsulfonyl)amino]pyridin-3-yl}methyl)amino]-5-(trifluoromethyl)pyrimidin-2-yl}amino)benzamide]
12 | 5.8 | CCC[C@H](CO)NC(=O)c1ccc(Nc2ncc(C(F)(F)F)c(NCc3cccnc3N(C)S(C)(=O)=O)n2)cc1 [Compound 257, N-[(1R)-1-(hydroxymethyl)butyl]-4-({4-[({2-[methyl(methylsulfonyl)amino]pyridin-3-yl}methyl)amino]-5-(trifluoromethyl)pyrimidin-2-yl}amino)benzamide]
13 | 1.79 | CN(c1ncccc1CNc1nc(Nc2ccc(C(=O)N3CCCCC3)cc2)ncc1C(F)(F)F)S(C)(=O)=O [Compound 258, N-methyl-N-[3-({[2-{[4-(piperidin-1-ylcarbonyl)phenyl]amino}-5-(trifluoromethyl)pyrimidin-4-yl]amino}methyl)pyridin-2-yl]methanesulfonamide]
14 | 1.57 | CN(C)C(=O)CNC(=O)c1ccc(Nc2ncc(C(F)(F)F)c(NCc3cccnc3N(C)S(C)(=O)=O)n2)cc1 [Compound 259, N-[2-(dimethylamino)-2-oxoethyl]-4-({4-[({2-[methyl(methylsulfonyl)amino]pyridin-3-yl}methyl)amino]-5-(trifluoromethyl)pyrimidin-2-yl}amino)benzamide]
15 | 2.3 | CN(c1ncccc1CNc1nc(Nc2ccc(C(=O)N3CCC[C@H](O)C3)cc2)ncc1C(F)(F)F)S(C)(=O)=O [Compound 260, N-{3-[({2-[(4-{[(3S)-3-hydroxypiperidin-1-yl]carbonyl}phenyl)amino]-5-(trifluoromethyl)pyrimidin-4-yl}amino)methyl]pyridin-2-yl}-N-methylmethanesulfonamide]
16 | 1.13 | C[C@H]1COCCN1C(=O)c1ccc(Nc2ncc(C(F)(F)F)c(NCc3cccnc3N(C)S(C)(=O)=O)n2)cc1 [Compound 261, N-methyl-N-{3-[({2-[(4-{[(3S)-3-rnethylmorpholin-4-yl]carbonyl}phenyl)amino]-5-(trifluoromethyl)pyrimidin-4-yl}amino)methyl]pyridin-2-yl}methanesulfonamide]
17 | 5.8 | CN(C(=O)c1ccc(Nc2ncc(C(F)(F)F)c(NCc3cccnc3N(C)S(C)(=O)=O)n2)cc1)C1CCCC1 [Compound 262, N-cyclopentyl-N-methyl-4-({4-[({2-[methyl(methylsulfonyl)amino]pyridin-3-yl}methyl)amino]-5-(trifluoromethyl)pyrimidin-2-yl}amino)benzamide]
18 | 0.81 | CN(c1ncccc1CNc1nc(Nc2ccc(C(=O)NC3CCCOC3)cc2)ncc1C(F)(F)F)S(C)(=O)=O (stereo not drawn) [Compound 263, 4-({4-(({2-[methyl(methylsulfonyl)amino]pyridin-3-yl}methyl)amino]-5-(trifluoromethyl)pyrimidin-2-yl}amino)-N-(tetrahydro-2H-pyran-3-yl)benzamide]
19 | 4.6 | CN(c1ncccc1CNc1nc(Nc2ccc(C(=O)NC(CO)CO)cc2)ncc1C(F)(F)F)S(C)(=O)=O [Compound 264, N-[2-hydroxy-1-(hydroxymethyl)ethyl]-4-({4-[({2-[methyl(methylsulfonyl)amino]pyridin-3-yl}methyl)amino]-5-(trifluoromethyl)pyrimidin-2-yl}amino)benzamide]
20 | 0.6 | CC1CCN(C(=O)c2ccc(Nc3ncc(C(F)(F)F)c(NCc4cccnc4N(C)S(C)(=O)=O)n3)cc2)CC1 [Compound 265, N-methyl-N-[3-({[2-({4-[(4-methylpiperidin-1-yl)carbonyl]phenyl}amino)-5-(trifluoromethyl)pyrimidin-4-yl]amino}methyl)pyridin-2-yl]methanesulfonamide]
21 | 0.6 | CN(c1ncccc1CNc1nc(Nc2ccc(C(=O)N3CCC(F)(F)C3)cc2)ncc1C(F)(F)F)S(C)(=O)=O [Compound 266, N-[3-({[2-({4-[(3.3-difluoropyrrolidin-1-yl)carbonyl]phenyl}amino)-5-(trifluoromethyl)pyrimidin-4-yl]amino}methyl)pyridin-2-yl]-N-methylmethane-sulfonamide]
22 | 1.15 | CN(c1ncccc1CNc1nc(Nc2ccc(C(=O)N3CC[C@H](O)C3)cc2)ncc1C(F)(F)F)S(C)(=O)=O [Compound 267, N-{3-[({2-[(4-{[(3S )-3-hydroxypyrrolidin-1-yl]carbonyl}phenyl)amino]-5-(trifluoromethyl)pyrimidin-4-yl}amino)methyl]pyridin-2-yl}-N-methylmethane-sulfonamide]
23 | 2.62 | CN(c1ncccc1CNc1nc(Nc2ccc(C(=O)N3CCC(C)(O)C3)cc2)ncc1C(F)(F)F)S(C)(=O)=O (stereo not drawn) [Compound 268, N-[3-({[2-({4-[(3-hydroxy-3-methylpyrrolidin-1 - yl)carbonyl]phenyl}amino)-5-(trifluoromethyl)pyrimidin-4-yl]amino}methyl)pyridin-2-yl]-N-methylmethane-sulfonamide]
24 | 8.69 | CCCN(CCO)C(=O)c1ccc(Nc2ncc(C(F)(F)F)c(NCc3cccnc3N(C)S(C)(=O)=O)n2)cc1 [Compound 269, N-(2-hydroxyethyl)-4-({4-[({2-[methyl(methylsulfonyl)amino]pyridin-3-yl}methyl)amino]-5-(trifluoromethyl)pyrimidin-2-yl}amino)-N-propylbenzamide]
25 | 0.99 | CN(c1ncccc1CNc1nc(Nc2ccc(C(=O)NCCCCCO)cc2)ncc1C(F)(F)F)S(C)(=O)=O [Compound 270, N-(5-hydroxypentyl)-4-({4-[({2-[methyl(methylsulfonyl)amino]pyridin-3-yl}methyl)amino]-5-(trifluoromethyl)pyrimidin-2-yl}amino)benzamide]
26 | 1.14 | CN(c1ncccc1CNc1nc(Nc2ccc(C(=O)NCc3ccccc3)cc2)ncc1C(F)(F)F)S(C)(=O)=O [Compound 271, N-benzyl-4-({4-[({2-[methyl(methylsulfonyl)amino]pyridin-3-yl}methyl)amino]-5-(trifluoromethyl)pyrimidin-2-yl}amino)benzamide]
27 | 2.64 | CN(c1ncccc1CNc1nc(Nc2ccc(C(=O)N3CC(F)C3)cc2)ncc1C(F)(F)F)S(C)(=O)=O [Compound 272, N-[3-(([2-({4-[(3-fluoroazetidin-1-yl)carbonyl]phenyl}amino)-5-(trifluoromethyl)pyrimidin-4-yl]amino}methyl)pyridin-2-yl]-N-methylmethane-sulfonamide]
